Test results reported in the NIST ThermoML archive (doi:10.1021/je800742d).
Numbers after ± are expanded uncertainties.

Details: Crystal; visual observation

Normal melting temperature: 278.00 ± 0.5 °C
Compound: CN1CCN(c2cc3c(cc2F)c(=O)c(C(=O)O)cn3-c2ccc(F)cc2)CC1 [difloxacin]
